Consider 2 compounds from patent US20150148387A1, “METHODS OF TREATMENT, DIAGNOSIS AND […] METHA[…] WHICH TARGET CERAMIDE METABOLIC […] AND […] SENESCENCE” (priority 2012, published 2015).

Series [1] relates to primary mouse embryonic fibroblasts (MEF). It counts as cell-based. How it is done:
(§1) Cells were washed with ice-cold phosphate-buffered saline (PBS) and scraped into 0.5 ml of methanol/water (1:1, vol:vol) containing the internal standards listed below. Protein concentrations were measured using the BCA protein assay (Pierce, Rockford, Ill., USA). Lipids were extracted with chloroform/methanol (2:1, vol:vol; 1.0 mL). The organic phases were collected, dried under nitrogen and dissolved in methanol for LC/MS analyses.
(§2) Helium was used as collision gas. […] Mobile phase composition was as described above.
(§3) Mouse embryonic fibroblasts (MEFs) were prepared from mice embryo as previously reported. Briefly, pregnant mice at day 13 post coitum were sacrificed and the uteri were dissected out. Each embryo was separated from the placenta and the head and visceral tissues were removed. The remaining body was minced in PBS and incubated with 0.1 mM trypsin/1 mM EDTA at 37° C. for 15 min. Two volumes of Dulbecco's Modified Eagle Medium (DMEM) containing 10% fetal bovine serum (FBS) was added and stood for 5 minutes to settle down large pieces of unbroken tissues. The supernatant was then removed and centrifuged at 200×g for 5 min and suspended in fresh DMEM containing 10% FBS. Cells were cultured at 37° C. with 5% CO2.

Series [2] shares this test system. The series is described as follows: ROS production in MEF (CM-H2DCFDA). It counts as cell-based. As to conditions: CYP inhibitors with methamphetamine. How it is done:
Production of ROS was measured using the fluorescent probe CM-H2DCFDA (Invitrogen). This carboxy derivative of fluorescein carries additional negative charges that improve its retention compared to noncarboxylated forms. For these experiments, MEFs were grown in DMEM without phenol red, for which anti-oxidative properties have been reported. Cells were plated to subconfluence in 12-well plates, washed 3 times with pre-warmed PBS and loaded for 30 min at 37° C./5% CO2 with […] CM-H2DCFDA in DMEM without phenol red (loading medium). Then the loading medium was removed and pre-warmed fresh medium containing the different CYP450 inhibitors in presence or absence of methamphetamine was added. Fluorescence (excitation at 485 nm, emission at 530 nm) was analyzed immediately, cells were incubated at 37° C./5% CO2, and fluorescence was analyzed at the indicated time points. ROS rate versus control (%) was calculated subtracting the percentage of ROS increasing from time zero in the methamphetamine-treated samples to the percentage of ROS increasing from time zero in vehicle-treated samples.

The next series relates to cytochrome P450 (CYP). The series is described as follows: Cell-associated methamphetamine content in MEF with CYP inhibitor (LC/MS). As to conditions: methamphetamine 1 mM 24 h, inhibitor 1-10 μM.
Series [3] has as its system ceramide synthase (CerS). The series is described as follows: Methamphetamine self-administration in rats: ceramide synthase activity in tissue. As to conditions: self-administering rats; data not shown. It counts as in vivo, rat. The protocol:
(§4) Fresh rat tissues were collected in 1 ml of homogenization buffer (25 mM HEPES, pH 7.4, containing 5 mM EGTA, 50 mM NaF, and complete mini EDTA-free protease inhibitor). Tissues were disrupted using pulse homogenizer, and centrifuged at 800×g for 5 min. The postnuclear supernatant was centrifuged at 250,000×g for 30 min at 4° C. in ultracentrifuge. The microsomal membrane pellet was resuspended in 250-500 μl of homogenization buffer. Protein concentration was measured using the BCA protein assay (Pierce, Rockford, Ill.).
(§5) Ceramide synthase activity was measured at 37° C. for 1 hr in HEPES buffer (20 mM, pH 7.4) containing 2 mM MgCl2, fatty acid-free bovine serum albumin (20 μmol) membrane proteins (0.05-0.1 mg), using dihydrosphingosine (sphinganine d17:0, 20 μmol) and palmitoyl-coenzyme A (70 μmol) as substrates. The reactions were stopped by adding chloroform-methanol (2:1, v/v) containing C12:0 ceramide (d18:1/12:0) as an internal standard. Lipid extracts were dried under nitrogen and reconstituted in chloroform-methanol (1:3, v/v; 0.1 ml) for LC-MS analyses. Products of reaction were measured using an Agilent 1100-LC system coupled to ion-trap XCT and interfaced with ESI (Agilent Technologies). […] For quantification purposes, we monitored the ions at m/z 526.5>508.5 for C17:0 dihydroceramide (d17:0/16:0) and m/z 482.5>464.5>264.3 for C12:0 ceramide (d18:1/12:0).

Series [4] concerns ceramide synthase (CerS). The experiment in a line: Acute methamphetamine administration in rats: ceramide synthase activity. It counts as in vivo, rat. As to conditions: non-contingent methamphetamine administration; data not shown. How it is done: Three groups of rats were used for these experiments. […] Other details are the same as for group 1.
as §4
as §5, with “Lipid extracts were dried under nitrogen and reconstituted in chloroform-methanol (1:3, v/v; 0.1 ml) for LC-MS analyses.” left out

In series [5] the test system is isolated mitochondria from primary MEF. The experiment in a line: Lipid analysis of isolated mitochondria from MEF. It counts as cell-based, mouse. As to conditions: methamphetamine 1 mM. How it is done:
as §1, §2, §3

For series [6], the system named is primary mouse embryonic fibroblasts (MEF). The series is described as follows: Gene expression in MEF. It counts as cell-based. The protocol:
Total RNA was extracted from frozen tissues using TRIzol reagent (Invitrogen, Carlsbad, Calif.) and was purified with the RNeasy mini kit (Qiagen, Valencia, Calif.). First-strand complementary DNAs were synthesized using SuperScript II RNaseH reverse transcriptase (Invitrogen). Reverse transcription of total RNA (2 μg) was carried out using oligo(dT)12-18 primers for 50 min at 42° C. mRNA levels were measured by quantitative real-time polymerase chain reaction (RT-PCR) with a Mx 3000P system (Stratagene, La Jolla, Calif.). The following list of primers and fluorogenic probes purchased from Applied Biosystems (TaqMan Gene Expression Assays, Foster City, Calif.): Ceramide Synthase 1 (Rn01420081_m1), Ceramide Synthase 2 (Rn01762789_m1), Ceramide Synthase 4 (Rn01767402_m1), Ceramide Synthase 5 (Rn01532864_m1), Ceramide Synthase 6 (Rn01270930_m1), Interleukin-6 (Rn01410330_m1). mRNA levels were normalized using beta actin, 18S ribosomal protein or glyceraldehyde-3-phosphate dehydrogenase as internal standards. Additional PCR primers were designed using Primer 3 (https://www.Frodo.wit.mit.edu), and the sequences are shown in S.Table XXX.
as §3

The test system is the same in series [7]. It counts as cell-based. The conditions noted are these: 1 mM, 48 h. The protocol:
Detection of senescence-associated β-galactosidase staining was performed as previously reported. Briefly, we plated MEFs on Lab-Tek chamber slides at a density of 5×10^4 cells per chamber. Next day, cells were treated with the indicated dose of drug for 48 hours. Cells were washed twice with PBS and fixed in 2% formaldehyde/0.2% glutaraldehyde for five minutes at room temperature. After two PBS washes the slides were incubated with fresh β-galactosidase stain solution (1 mg/mL 5-bromo-4-chloro-3-indoyl β-D-galactoside (X-Gal) 40 mM sodium phosphate, pH 6.0, 5 mM potassium ferrocyanide, 5 mM potassium ferricyanide, 150 mM NaCl, and 2 mM MgCl2) at 37° C. for 12-16 hours. Slides were washed with PBS and mounted with DAPI containing media. Images were taken for the β-gal staining and overlapped with fluorescent images taken of the same region to count the number of cells staining positive for β-gal (Nikon Eclipse E600). More than 200 cells from 5 different regions of a slide were counted in a blind fashion.

Series [8] has the same test system. The series is described as follows: Crystal violet staining, cell morphology. The conditions noted are these: 48 h, 1 mM, passage 2. It counts as cell-based. The protocol: To study cell morphology, cells were plated and treated in 6-well plates. After fixation, with 4% paraformaldehyde cells were stained with crystal violet (0.5% crystal violet in methanol:PBS, 1:1, v/v). After thorough wash in tap water, images were taken using a Westover Scientific Series 8 microscope.

Series [9] shares this test system. The experiment in a line: Population doubling. As to conditions: 1 mM; compared to control cells. It counts as cell-based. How it is done:
We plated 1×10^6 cells on a 60 mm dishes and treated them with 1 mM methamphetamine. Cells were trypsinized and re-plated at the same density (1×10^6 cells/dish) every 3 days for 6 passages. Population doublings were calculated according to the formula log (final cell number/plated cell number/log 2).

Series [10] has the same test system. The experiment in a line: DNA replication assay ([3H]thymidine). The conditions noted are these: 48 h, 1 mM.
For series [11], the system named is de novo ceramide biosynthesis. The series is described as follows: Acute methamphetamine administration in rats: tissue lipid levels.
Protocol: Forty-six male Sprague-Dawley rats (Charles River, Wilmington, Mass.), weighing approximately 360-420 g were used in these experiments.
Three groups of rats were used for these experiments. Group 1: On the day of the experiment, rats received two i.p. injections of methamphetamine, 10 mg/kg (n=6), or saline (n=6) every 2 h. Two hours after the last administration of methamphetamine or saline, rats were euthanized by decapitation. Brain, liver, kidney (left), heart, skin (hind paw), skeletal muscle (vastus lateralis muscle) were harvested. Brains and livers were snap-frozen in isopentane and other tissues were snap-frozen in liquid nitrogen and stored at −80° C. Group 2: On the day of the experiment, rats received two i.p. injections of methamphetamine, 1.5 mg/kg (n=6), or saline (n=6) every 2 h. Other details are the same as for group 1. Group 3: On the day of the experiment, five rats received two i.p. injections of 1.5 mg/kg methamphetamine every 2 h; five rats received two i.p. injections of 5 mg/kg methamphetamine every 2 h; six rats received two i.p. injections of 10 mg/kg D-methamphetamine every 2 h, and six rats received two i.p. injections of saline every 2 h. Two hours after the last injection, blood was collected by cardiac puncture under isoflurane anesthesia and immediately afterwards brain, skeletal muscle and skin were harvested and handled as described for group 1.
Briefly, frozen brain samples were weighed and homogenized in cold methanol containing appropriate internal standards (listed below). Lipids were extracted by adding chloroform and water (2/1, vol/vol) and fractionated through open-bed silica gel columns by progressive elution with chloroform/methanol mixtures. Fractions eluted from the columns were dried under nitrogen, reconstituted in chloroform/methanol (1:4, vol/vol; 0.1 ml) and subjected to LC/MS.
Sphingolipid molecular species were analyzed by tandem mass spectrometry, using an Agilent 1100 liquid chromatography coupled to an ESI-ion-trap XCT mass detector. Dihydroceramides and ceramides were separated on a Poroshell 300 SB C18 column (2.1×75 mm i.d., 5 μm; Agilent Technologies) maintained at 30° C. […] Extracted ion chromatograms were used to quantify the following ceramides: d18:1/16:0 [M+H]^+ (m/z=538.5>520.5>264.3), d18:0/16:0 [M+H]^+ (m/z=540.5>522.5), d18:1/18:0 [M+H]^+ (m/z=566.5>548.5>264.3), d18:0/18:0 [M+H]^+ (m/z=568.5>550.5), d18:1/24:0 [M+H]^+ (m/z=650.6>632.8>2643), d18:0/24:0 [M+H]^+ (m/z=652.6>634.8), d18:1/24:1 [M+H]^+ (m/z=648.6>630.8>264.3), d18:0/24:1 [M+H]^+ (m/z=650.6>632.8), using d18:1/12:0 [M+H]^+ (m/z=482.5>464.5>264.3) as an internal standard. […]
In series [12] the test system is ceramide content and IL-6 and p21 mRNA. The experiment in a line: Acute experiment in mice: methamphetamine alone or in combination with L-CS. As to conditions: acute treatment with methamphetamine alone.
The subject of series [13] is de novo ceramide biosynthesis. The series is described as follows: Methamphetamine self-administration in rats: lipidomic analysis of tissues by LC/MS.
Protocol: Male Sprague-Dawley rats (Charles River, Wilmington, Mass.), weighing approximately 360-440 g at the beginning of the self-administration experiment, were individually housed in a temperature- and humidity-controlled environment under a reversed lighting 12-h light/dark cycle (lights on at 7:00 p.m.). The rats were allowed free access to food (NIH07 biscuits) in their home cage throughout the study. Water was available ad libitum in the home cage and in the testing chamber. Rats were tested in the light phase. They were experimentally and drug naïve at the beginning of this study.
Each of eighteen standard operant-conditioning chambers (Coulbourn Instruments, Lehigh Valley, Pa.) contained a white house light and two holes with nose-poke operanda on either side of a food trough. Upon activation, each nose poke produced a brief feedback tone. […] The tubing was attached to a syringe pump (Harvard Apparatus, South Natick, Mass.), which was programmed to deliver 2-s injections. The injected volume was adjusted for every animal to deliver a methamphetamine dose of 0.1 mg/kg/injection. Experimental events were controlled by microcomputers using MED Associates interfaces and software (Med Associates Inc., East Fairfield, Vt.).
Silastic catheter was implanted into the external jugular vein under anesthesia with a mixture of ketamine and xylazine (60 and 10 mg/kg i.p., respectively). Catheter exited the skin behind the ear. After catheter implantation, a nylon bolt glued to an acrylic mesh was implanted subcutaneously in the midscapular region. The nylon bolt served as a tether, preventing the catheter from being pulled out during self-administration sessions. Following surgery, the IV catheter was flushed daily during the first week with 0.2-0.3 ml of solution containing cephalosporin (100 mg/ml; Cefazolin For Injection, USP; Hospira Inc., Lake Forest, Ill., USA) and then flushed before and after each daily session with saline to maintain its patency) and then flushed after each daily session with saline to maintain its patency.
Each experimental group was divided into two subgroups that were tested simultaneously. One subgroup served as yoked controls and passively received an injection of saline (which was not contingent on responding) each time a response-contingent injection of 0.1 mg/kg methamphetamine was actively self-administered by the first subgroup of rats. […] The first experimental groups consisted of 12 rats self-administering methamphetamine and 6 yoked control rats. The second experimental group consisted of 9 rats self-administering methamphetamine and 9 yoked control rats. The third experimental group consisted of 16 rats self-administering methamphetamine and 8 yoked control rats. […] The pretreatment with L-CS was always given immediately before and after each session and the catheter was flushed with 0.5 ml of saline afterwards. Before and after sessions 4 and 5 animals received dose 10 mg/kg of L-CS and before and after sessions 6, 7, and 8 they received dose 20 mg/kg of L-CS. The animals received total dose 160 mg/kg of L-CS during the experiment.
Eight consecutive 15-hour sessions were conducted between 4 p.m. and 8 a.m. Rats and the food in the feeders were weighed before the start of each session. At the start of each session, a white house light was turned on and a priming injection of 0.1 mg/kg methamphetamine (or saline for yoked group), sufficient to fill the “dead” space of the IV catheter, was automatically delivered. Rats learned to self-administer methamphetamine under one-response, fixed ratio schedule (FRI) of i.v. methamphetamine injection with 30-s time-out duration.
Where [14] appears, read: skeletal muscle, rats self-administering methamphetamine vs controls.
The mark [15] stands for this setting: skeletal muscle, self-administering rats vs controls.

Where a name gives a salt, the structure may show the parent alone. Read-outs that look alike come from different tables or passages of the source.

Compound `Clc1ccccc1C(c1ccccc1)(c1ccccc1)n1ccnc1` [clotrimazole] displayed a baseline ceramide content in [1] (MEF without methamphetamine, inhibitor 10 μM, n=3, […]) of 49.2±3 pmol-mg^−1 protein. Besides, the methamphetamine-induced ceramide accumulation entry in series [1] (MEF, inhibitor 1-10 μM) was “decreased”. In addition, the “release of ROS evoked by methamphetamine” value in series [2] was “prevented”. For the same compound, the “levels of non-metabolized methamphetamine” value in the series with cytochrome P450 (CYP) is “increased”.
For `CN[C@@H](C)Cc1ccccc1` [methamphetamine, S(+)-methylamphetamine HCl], the CerS activity result with ceramide synthase (CerS) [3] was “increased”. Also, the CerS activity entry in the series with ceramide synthase (CerS) [4] is “increased”. For the same compound, the “ceramide (d18:1/16:0) content” value in series [1] (incubation of MEF with the drug alone) is reported as “increased ceramide (d18:1/16:0) in a dose-dependent manner”. In addition, in series [5], the “long chain ceramides (d18:1/24:0 and d18:1/24:1)” value is listed as “mitochondrial specific increase”; the “short chain ceramide (d18:1/16:0)” value was “increases”. In addition, in [6] (MEF treated with methamphetamine), the “mRNA levels of the genes involved de novo ceramide biosynthesis” value is given as “increased”. Also, the “p21 and p53 transcription” value in series [6] (MEF, methamphetamine treatment) is recorded as “increase”. The “number of SA-β-gal positive cells” value in [7] (passage 1 to 4, vs vehicle-treated cells) is “increased”. Also, in series [7] (passage 3, versus non-treated cells), the “increase in the number of SA-β-gal positive cells” value is recorded as “greater than 4 fold”. For the same compound, the “number of SA-β-gal positive cells” value in series [7] (passage 5) was “did not further increase”. In addition, in [8], the cell morphology result is given as “morphological changes typical of senescent phenotype”. In addition, in series [9], the “number of population doublings” value is recorded as “decreased”. In addition, the “DNA synthesis, [3H]-thymidine” value in series [10] is recorded as “decreased”. For the same compound, the “striatal levels of various ceramide species” value in [11] (dorsal striatum, 2×10 mg/kg intraperitoneal) was “marked increase”. Moreover, the “changes in ceramide species” value in [11] (low doses (i.e., non-toxic)) is “did not induce any changes”. For the same compound, the “ceramide levels in peripheral tissues” value in [11] (plasma, skeletal muscle, heart, liver and skin, 2×10 mg/kg intraperitoneal) was “marked increases”. In addition, the “d18:1/16:0 ceramide levels” value in series [11] (rat skeletal muscle, intraperitoneal 3, 10, and 20 mg/kg) was “dose-dependent increase”. Also, the ceramide content entry in series [12] is reported as “increased”. Further, in series [13] (setting [14]), the “increase in ceramide (d18:1/16:0)” value is 4 fold and the “increase in dihydroceramide (d18:1/16:0)” value is given as 4 fold. In addition, in series [13] (setting [15]), the “levels of dihydrosphingomyelin (d18:1/16:0)” value is recorded as “unchanged” and the “levels of sphingomyelin (d18:1/16:0)” value is reported as “unchanged”. Also, the multiple ceramide species entry in series [13] (various tissues, largest increase in skeletal muscle, heart and liver, methamphetamine-exposed rats vs controls) is given as “substantially increased”.
